Test results as given in ChEMBL document CHEMBL1201862, “PubChem BioAssay data set” (2004).
Values joined by “and” are separate entries in the source; they are usually repeats but may differ in a detail not shown here. Equal values may be shown once.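 The compound was tested at five concentrations on cells cultured in 96-well plates, with a 48-hour exposure period. The concentration for 50% growth inhibition is given as GI50.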 Active and inactive are the calls of the source. Cut-off read from the data, not from the text of the source: active = GI50 up to about 1.1 µM and inactive = higher.

Legend:
Assay in all cases: NCI anticancer screen, dose series, 48 h
[1] = test system: 786-0
[2] = test system: OVCAR-4
[3] = test system: Malme-3M
[4] = test system: CAKI-1
[5] = test system: SK-MEL-2
[6] = test system: DMS-273
[7] = test system: HOP-18
[8] = test system: HCT-15
[9] = test system: SF-268
[10] = test system: UACC-257
[11] = test system: SR
[12] = test system: SF-539
[13] = test system: RPMI-8226
[14] = test system: SK-MEL-28
[15] = test system: KM12
[16] = test system: UO-31
[17] = test system: SNB-19
[18] = test system: KM-20L2
[19] = test system: SF-295
[20] = test system: SK-MEL-5
[21] = test system: COLO 205
[22] = test system: HL-60
[23] = test system: SNB-75
[24] = test system: HCC 2998
[25] = test system: SW-620
[26] = test system: CCRF-CEM
[27] = test system: OVCAR-3
[28] = test system: SK-OV-3
[29] = test system: SN12C
[30] = test system: K562
[31] = test system: A549
[32] = test system: RXF 393
[33] = test system: NCI-H23
[34] = test system: U-251
[35] = test system: DMS-114
[36] = test system: NCI-H522
[37] = test system: NCI-H460
[38] = test system: HCT-116
[39] = test system: LXFL 529
[40] = test system: EKVX
[41] = test system: M19-MEL
[42] = test system: NCI-H226
[43] = test system: ACHN
[44] = test system: HT-29
[45] = test system: TK-10
[46] = test system: HOP-92
[47] = test system: MOLT-4
[48] = test system: A498
[49] = test system: DLD-1
[50] = test system: M14
[51] = test system: IGROV-1
[52] = test system: XF498
[53] = test system: OVCAR-8
[54] = test system: LOX IMVI
[55] = test system: OVCAR-5
[56] = test system: UACC-62
[57] = test system: HOP-62
[58] = test system: SNB-78

COc1ccc2[nH]c3c(C)cc([N+](=O)[O-])c(C)c3c2c1
GI50 [1]: 21.8 µM (inactive) | GI50 [2]: 33 µM (inactive) | GI50 [3]: 28.6 µM (inactive) | GI50 [4]: 19.4 µM (inactive) | GI50 [5]: 20.6 µM (inactive) | GI50 [6]: 13.6 µM (inactive) | GI50 [7]: 26.1 µM (inactive) | GI50 [8]: 26.6 µM | GI50 [9]: 37.3 µM (inactive) | GI50 [10]: 31.2 µM (inactive) | GI50 [11]: 17.7 µM (inactive) | GI50 [12]: 23.7 µM (inactive) | GI50 [13]: 17.7 µM (inactive) | GI50 [14]: 24.7 µM (inactive) | GI50 [15]: 19.7 µM (inactive) | GI50 [16]: 21.6 µM (inactive) | GI50 [17]: 37.8 µM (inactive) | GI50 [18]: 47.5 µM (inactive) | GI50 [19]: 41.4 µM (inactive) | GI50 [20]: 25.6 µM (inactive) | GI50 [21]: 26.3 µM (inactive) | GI50 [22]: 16.6 µM (inactive) | GI50 [23]: 20.4 µM (inactive) | GI50 [24]: 25.4 µM (inactive) | GI50 [25]: 21.7 µM (inactive) | GI50 [26]: 17.9 µM (inactive) | GI50 [27]: 37.8 µM (inactive) | GI50 [28]: 28.2 µM (inactive) | GI50 [29]: 31.3 µM (inactive) | GI50 [30]: 18.4 µM (inactive) | GI50 [31]: 25 µM (inactive) | GI50 [32]: 19 µM (inactive) | GI50 [33]: 22.6 µM (inactive) | GI50 [34]: 22.9 µM (inactive) | GI50 [35]: 23.3 µM (inactive) | GI50 [36]: 17.1 µM (inactive) | GI50 [37]: 15.5 µM (inactive) | GI50 [38]: 17.9 µM (inactive) | GI50 [39]: 25.5 µM (inactive) | GI50 [40]: 31 µM (inactive) | GI50 [41]: 21.9 µM (inactive) | GI50 [42]: 43.7 µM (inactive) | GI50 [43]: 22 µM (inactive) | GI50 [44]: 28.5 µM (inactive) | GI50 [45]: 27.1 µM (inactive) | GI50 [46]: 28.4 µM (inactive) | GI50 [47]: 20.5 µM (inactive) | GI50 [48]: 21.6 µM (inactive) | GI50 [49]: 26.6 µM (inactive) | GI50 [50]: 21.1 µM (inactive) | GI50 [51]: 27.4 µM (inactive) | GI50 [52]: 34.2 µM (inactive) | GI50 [53]: 23 µM (inactive)

NCCCNCCSSC/C=C\CSSCCNCCCN
GI50 [1]: > 100 µM (inactive) | GI50 [2]: 51.8 µM (inactive) and 58.2 µM (inactive) | GI50 [3]: 78 µM (inactive) | GI50 [4]: 36.1 µM (inactive) and 38.5 µM (inactive) | GI50 [5]: 50.1 µM (inactive) | GI50 [54]: 45.2 µM (inactive) and 43.3 µM (inactive) | GI50 [55]: > 100 µM (inactive) | GI50 [6]: 43.1 µM (inactive) and 44.8 µM (inactive) | GI50 [7]: > 100 µM (inactive) | GI50 [8]: > 100 µM and 63.7 µM | GI50 [9]: > 100 µM (inactive) and 57.8 µM (inactive) | GI50 [10]: 30.9 µM (inactive) and 17.1 µM (inactive) | GI50 [12]: 72.4 µM (inactive) and 89.3 µM (inactive) | GI50 [13]: 26.9 µM (inactive) and 28.6 µM (inactive) | GI50 [14]: > 100 µM (inactive) | GI50 [15]: 17.7 µM (inactive) and 18.9 µM (inactive) | GI50 [16]: 65 µM (inactive) and 63.4 µM (inactive) | GI50 [17]: > 100 µM (inactive) | GI50 [20]: 41.1 µM (inactive) and 62.1 µM (inactive) | GI50 [21]: 29.5 µM (inactive) and 45.6 µM (inactive) | GI50 [22]: 16.6 µM (inactive) and 19.2 µM (inactive) | GI50 [23]: 39.5 µM (inactive) and 37.3 µM (inactive) | GI50 [24]: 90.6 µM (inactive) | GI50 [25]: 44.4 µM (inactive) and 31.1 µM (inactive) | GI50 [26]: 3.75 µM (inactive) and 4.3 µM (inactive) | GI50 [27]: 40.5 µM (inactive) and 42 µM (inactive) | GI50 [28]: > 100 µM (inactive) | GI50 [29]: 75.7 µM (inactive) and 44.4 µM (inactive) | GI50 [30]: 19.2 µM (inactive) and 18.4 µM (inactive) | GI50 [33]: > 100 µM (inactive) | GI50 [34]: > 100 µM (inactive) and 53.8 µM (inactive) | GI50 [35]: 67 µM (inactive) and 44.1 µM (inactive) | GI50 [36]: 10.3 µM (inactive) and 13.2 µM (inactive) | GI50 [37]: > 100 µM (inactive) | GI50 [39]: 34.9 µM (inactive) and 24.9 µM (inactive) | GI50 [56]: 36.3 µM (inactive) and 52.8 µM (inactive) | GI50 [40]: > 100 µM (inactive) | GI50 [41]: 64.6 µM (inactive) | GI50 [43]: > 100 µM (inactive) | GI50 [44]: 14.2 µM (inactive) and 15.3 µM (inactive) | GI50 [45]: > 100 µM (inactive) and 60.3 µM (inactive) | GI50 [46]: 18.9 µM (inactive) and 23 µM (inactive) | GI50 [47]: 20.4 µM (inactive) and 12.3 µM (inactive) | GI50 [48]: > 100 µM (inactive) | GI50 [49]: 37.5 µM (inactive) and 60.1 µM (inactive) | GI50 [50]: 34 µM (inactive) and 49 µM (inactive) | GI50 [51]: > 100 µM (inactive) | GI50 [52]: 52.6 µM (inactive) and 93.5 µM (inactive) | GI50 [53]: > 100 µM (inactive)

COc1ccc(CCC2c3cc(OC)c(OC)cc3CCN2C)cc1OC (configuration not stated)
GI50 [1]: > 100 µM (inactive) | GI50 [2]: > 100 µM (inactive) | GI50 [3]: > 100 µM (inactive) | GI50 [4]: > 100 µM (inactive) | GI50 [5]: > 100 µM (inactive) | GI50 [54]: > 100 µM (inactive) | GI50 [55]: > 100 µM (inactive) | GI50 [7]: > 100 µM (inactive) | GI50 [8]: > 100 µM | GI50 [9]: > 100 µM (inactive) | GI50 [10]: > 100 µM (inactive) | GI50 [11]: > 100 µM (inactive) | GI50 [12]: > 100 µM (inactive) | GI50 [13]: > 100 µM (inactive) | GI50 [14]: > 100 µM (inactive) | GI50 [15]: > 100 µM (inactive) | GI50 [16]: > 100 µM (inactive) | GI50 [17]: > 100 µM (inactive) | GI50 [18]: > 100 µM (inactive) | GI50 [57]: > 100 µM (inactive) | GI50 [19]: > 100 µM (inactive) | GI50 [20]: > 100 µM (inactive) | GI50 [21]: > 100 µM (inactive) | GI50 [22]: > 100 µM (inactive) | GI50 [23]: > 100 µM (inactive) | GI50 [24]: > 100 µM (inactive) | GI50 [25]: > 100 µM (inactive) | GI50 [58]: > 100 µM (inactive) | GI50 [26]: > 100 µM (inactive) | GI50 [27]: > 100 µM (inactive) | GI50 [28]: > 100 µM (inactive) | GI50 [29]: > 100 µM (inactive) | GI50 [30]: > 100 µM (inactive) | GI50 [31]: > 100 µM (inactive) | GI50 [32]: > 100 µM (inactive) | GI50 [33]: > 100 µM (inactive) | GI50 [34]: > 100 µM (inactive) | GI50 [35]: > 100 µM (inactive) | GI50 [36]: > 100 µM (inactive) | GI50 [37]: > 100 µM (inactive) | GI50 [38]: > 100 µM (inactive) | GI50 [39]: > 100 µM (inactive) | GI50 [56]: > 100 µM (inactive) | GI50 [40]: > 100 µM (inactive) | GI50 [41]: > 100 µM (inactive) | GI50 [42]: > 100 µM (inactive) | GI50 [43]: > 100 µM (inactive) | GI50 [44]: > 100 µM (inactive) | GI50 [45]: > 100 µM (inactive) | GI50 [46]: 46 µM (inactive) | GI50 [47]: > 100 µM (inactive) | GI50 [49]: > 100 µM (inactive) | GI50 [50]: > 100 µM (inactive) | GI50 [51]: > 100 µM (inactive) | GI50 [53]: > 100 µM (inactive)
